The values that follow come from the Kinase Knowledgebase extract (Sharma et al. 2016).

Structures are written as SMILES.

The test addresses PIK3CA (human) (UniProt P42336). The experiment in a line: Assessment of PIK3CA Kinase Activity.

Chain of PIK3CA (human) (P42336 whole entry, looked up): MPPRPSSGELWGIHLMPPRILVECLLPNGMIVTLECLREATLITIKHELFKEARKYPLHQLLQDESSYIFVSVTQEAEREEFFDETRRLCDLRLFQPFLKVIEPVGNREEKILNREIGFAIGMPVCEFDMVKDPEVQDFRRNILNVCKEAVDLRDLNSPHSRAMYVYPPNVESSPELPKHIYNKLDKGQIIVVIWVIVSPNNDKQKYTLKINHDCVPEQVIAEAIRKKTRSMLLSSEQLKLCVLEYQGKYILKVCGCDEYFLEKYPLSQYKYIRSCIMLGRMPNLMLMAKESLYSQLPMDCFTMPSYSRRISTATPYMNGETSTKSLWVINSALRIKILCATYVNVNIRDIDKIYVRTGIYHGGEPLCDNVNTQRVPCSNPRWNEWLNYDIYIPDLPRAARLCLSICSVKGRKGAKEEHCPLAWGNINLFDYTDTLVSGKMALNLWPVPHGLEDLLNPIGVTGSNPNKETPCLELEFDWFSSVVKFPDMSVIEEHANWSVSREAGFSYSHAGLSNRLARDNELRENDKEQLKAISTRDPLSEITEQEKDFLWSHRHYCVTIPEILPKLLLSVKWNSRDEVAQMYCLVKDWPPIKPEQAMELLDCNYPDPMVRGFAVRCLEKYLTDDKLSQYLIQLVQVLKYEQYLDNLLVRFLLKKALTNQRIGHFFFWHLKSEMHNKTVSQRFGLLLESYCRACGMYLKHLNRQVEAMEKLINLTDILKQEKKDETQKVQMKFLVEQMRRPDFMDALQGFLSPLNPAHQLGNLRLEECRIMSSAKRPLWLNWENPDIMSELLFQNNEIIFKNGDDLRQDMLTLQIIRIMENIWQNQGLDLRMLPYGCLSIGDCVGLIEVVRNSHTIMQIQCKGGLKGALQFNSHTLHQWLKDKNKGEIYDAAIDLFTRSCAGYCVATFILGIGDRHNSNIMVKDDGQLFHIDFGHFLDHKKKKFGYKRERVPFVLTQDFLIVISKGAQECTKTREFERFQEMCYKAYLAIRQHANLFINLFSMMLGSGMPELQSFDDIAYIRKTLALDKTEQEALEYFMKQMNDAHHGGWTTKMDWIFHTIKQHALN

The IC50 is the point on the concentration scale where inhibition reaches its midpoint. Read a low IC50 as greater potency in that assay. `CC(=O)NCCN(Cc1cc2nc(-c3cccc4[nH]ncc34)nc(N3CCOCC3)c2s1)c1ncc(C(=O)NO)cn1`: the IC50 was less than 100 nM.
In the case of `CN(Cc1cc2nc(-c3cc(F)cc4[nH]ncc34)nc(N3CCOCC3)c2s1)c1ncc(C(=O)NO)cn1` it was less than 100 nM.
In the case of `O=C(NO)c1cnc(N2CCN(S(=O)(=O)c3cc4nc(-c5cccc6[nH]ncc56)nc(N5CCOCC5)c4s3)CC2)nc1` it was less than 100 nM; in that of `CN(Cc1cc2nc(-c3ccc(C(N)=O)cc3)nc(N3CCOCC3)c2s1)c1ncc(C(=O)NO)cn1`, 100 to 1000 nM; in that of `CN(CCCCCCC(=O)NO)Cc1cc2nc(-c3cccc4[nH]ncc34)nc(N3CCOCC3)c2s1`, less than 100 nM.
Take `N#CCCN(Cc1cc2nc(-c3cccc4[nH]ncc34)nc(N3CCOCC3)c2s1)c1ncc(C(=O)NO)cn1`: the half-maximal inhibitory concentration (IC50) was less than 100 nM.
The compound `CN(Cc1cc2nc(-c3cnc(C(N)=O)nc3)nc(N3CCOCC3)c2s1)c1ncc(C(=O)NO)cn1` registered an IC50 of less than 100 nM.
`CN(Cc1cc2nc(-c3cccc4[nH]ncc34)nc(Nc3ccccc3)c2s1)c1ncc(C(=O)NO)cn1`: the IC50 is less than 100 nM.
For the compound `CN(Cc1cc2nc(-c3ccc(N)c(N)c3)nc(N3CCOCC3)c2s1)c1ncc(C(=O)NO)cn1`, the concentration for half-maximal inhibition (IC50) was 100 to 1000 nM.
Regarding `CN(C)CCN(Cc1cc2nc(-c3cccc4[nH]ncc34)nc(N3CCOCC3)c2s1)c1ncc(C(=O)NO)cn1`, the IC50 is less than 100 nM.
In the case of `CC(C)(Nc1ncc(C(=O)NO)cn1)c1cc2nc(-c3cccc4[nH]ncc34)nc(N3CCOCC3)c2s1`, the half-maximal inhibitory concentration (IC50) is 100 to 1000 nM.
`CN(Cc1cc2nc(-c3cnc(N)nc3)nc(N3CCOCC3)c2s1)c1ncc(C(=O)NO)cn1` displayed a half-maximal inhibitory concentration (IC50) of less than 100 nM.
As for `CN(Cc1cc2nc(-c3cccc(CO)c3)nc(N3CCOCC3)c2s1)c1ncc(C(=O)NO)cn1`, the IC50 is less than 100 nM.
Turning to `CCN(Cc1cc2nc(-c3cccc4[nH]ncc34)nc(N3CCOCC3)c2s1)c1ncc(C(=O)NO)cn1`, the concentration for half-maximal inhibition (IC50) is less than 100 nM.
In the case of `O=C(C=Cc1ccc(CNCc2cc3nc(-c4cccc5[nH]ncc45)nc(N4CCOCC4)c3s2)cc1)NO` it was 100 to 1000 nM; in that of `CN(CCCCCC(=O)NO)Cc1cc2nc(-c3cccc4[nH]ncc34)nc(N3CCOCC3)c2s1`, 100 to 1000 nM; in that of `Nc1ccc(-c2nc(N3CCOCC3)c3sc(CNCc4ccc(/C=C/C(=O)NO)cc4)cc3n2)cc1`, 100 to 1000 nM.
`CN(Cc1cc2nc(-c3cn[nH]c3)nc(N3CCOCC3)c2s1)c1ncc(C(=O)NO)cn1` yielded an IC50 of 100 to 1000 nM.
Next, `Cn1cc(CNc2cc3nc(-c4cccc5[nH]ncc45)nc(N4CCOCC4)c3s2)c2cc(C(=O)NO)ccc21`: less than 100 nM; `O=C(NO)c1ccc(NCc2cc3nc(-c4cccc5[nH]ncc45)nc(N4CCOCC4)c3s2)nc1`: less than 100 nM.
In the case of `O=C(O)CN(Cc1cc2nc(-c3cccc4[nH]ncc34)nc(N3CCOCC3)c2s1)c1ncc(C(=O)NO)cn1` it was less than 100 nM; in that of `CCc1ncc(-c2nc(N3CCOCC3)c3sc(CN(C)c4ncc(C(=O)NO)cn4)cc3n2)cn1`, less than 100 nM.
Take `CN(Cc1cc2nc(-c3ccc(N)cc3)nc(N3CCOCC3)c2s1)c1ncc(C(=O)NO)cn1`: the half-inhibitory concentration (IC50) was less than 100 nM.
On to `CN(Cc1cc2nc(-c3cccc4[nH]ncc34)nc(N3CCOCC3)c2s1)c1ccc(/C=C/C(=O)NO)cc1`, for which the 50% inhibitory concentration (IC50) is less than 100 nM.
In the case of `CN(Cc1cc2nc(-c3ccc(CN)cc3)nc(N3CCOCC3)c2s1)c1ncc(C(=O)NO)cn1` it was 100 to 1000 nM; in that of `CS(=O)(=O)N1CCN(Cc2cc3nc(-c4cccc5nn(CCCCC(=O)NO)cc45)nc(N4CCOCC4)c3s2)CC1`, 100 to 1000 nM.
Regarding `CN(Cc1cc2nc(-c3cccnc3)nc(N3CCOCC3)c2s1)c1ncc(C(=O)NO)cn1`, the IC50 was less than 100 nM.
Next, `O=C(CCCCCCNc1cc2nc(-c3cccc4[nH]ncc34)nc(N3CCOCC3)c2s1)NO`: 100 to 1000 nM; `CN(Cc1cc2nc(-c3cccc4[nH]ncc34)nc(N3CCOCC3)c2s1)c1ccc(C(=O)NO)cc1`: less than 100 nM.
In the case of `Nc1ccc(-c2nc(N3CCOCC3)c3sc(CN4CCN(c5ncc(C(=O)NO)cn5)CC4)cc3n2)cc1` it was 100 to 1000 nM; in that of `CN(CCCCC(=O)NO)Cc1cc2nc(-c3cccc4[nH]ncc34)nc(N3CCOCC3)c2s1`, 100 to 1000 nM; in that of `CN(Cc1cc2nc(-c3cccc(N)c3)nc(N3CCOCC3)c2s1)c1ncc(C(=O)NO)cn1`, 100 to 1000 nM.
For the compound `O=C(CCCCCN1CCN(Cc2cc3nc(-c4cccc5[nH]ncc45)nc(N4CCOCC4)c3s2)CC1)NO`, the half-maximal inhibitory concentration (IC50) was less than 100 nM.
Next, `CC(C)CN(Cc1cc2nc(-c3cccc4[nH]ncc34)nc(N3CCOCC3)c2s1)c1ncc(C(=O)NO)cn1`: 100 to 1000 nM; `CN(Cc1cc2nc(-c3ccccc3CO)nc(N3CCOCC3)c2s1)c1ncc(C(=O)NO)cn1`: 100 to 1000 nM.
In turn, `Nc1ccc(-c2nc(N3CCOCC3)c3sc(CNc4ncc(C(=O)NO)cn4)cc3n2)cc1` gave an IC50 of 100 to 1000 nM.
Next, `CC(=O)Nc1ccc(-c2nc(N3CCOCC3)c3sc(CN(C)c4ncc(C(=O)NO)cn4)cc3n2)cn1`: less than 100 nM; `O=C(NO)c1ccc(NCc2cc3nc(-c4cccc5[nH]ncc45)nc(N4CCOCC4)c3s2)cc1`: 100 to 1000 nM; `CCCN(Cc1cc2nc(-c3cccc4[nH]ncc34)nc(N3CCOCC3)c2s1)c1ncc(C(=O)NO)cn1`: less than 100 nM.
Compound `CN(Cc1cc2nc(-c3cc[nH]c3)nc(N3CCOCC3)c2s1)c1ncc(C(=O)NO)cn1` yielded a 50% inhibitory concentration (IC50) of less than 100 nM.
Next, `O=C(NO)c1cnc(N(CCCO)Cc2cc3nc(-c4cccc5[nH]ncc45)nc(N4CCOCC4)c3s2)nc1`: less than 100 nM; `CN(Cc1cc2nc(-c3cccc4[nH]ncc34)nc(NCCO)c2s1)c1ncc(C(=O)NO)cn1`: 100 to 1000 nM.
In the case of `O=C(NO)c1cnc(N2CCC(CNc3cc4nc(-c5cccc6[nH]ncc56)nc(N5CCOCC5)c4s3)CC2)nc1` it was less than 100 nM.
In the case of `CN(C)c1ncc(-c2nc(N3CCOCC3)c3sc(CN(C)c4ncc(C(=O)NO)cn4)cc3n2)cn1` it was less than 100 nM.
`CC(=O)OCCN(Cc1cc2nc(-c3cccc4[nH]ncc34)nc(N3CCOCC3)c2s1)c1ncc(C(=O)NO)cn1`: the IC50 is less than 100 nM.
In the case of `CN(Cc1cc2nc(-c3cncnc3)nc(N3CCOCC3)c2s1)c1ncc(C(=O)NO)cn1` it was less than 100 nM; in that of `COCc1cccc(-c2nc(N3CCOCC3)c3sc(CN(C)c4ncc(C(=O)NO)cn4)cc3n2)c1`, 100 to 1000 nM; in that of `Cc1ccc(-c2nc(N3CCOCC3)c3sc(CN(C)c4ncc(C(=O)NO)cn4)cc3n2)cc1`, 100 to 1000 nM.
Next, `O=C(CCCCCCNCc1cc2nc(-c3cccc4[nH]ncc34)nc(N3CCOCC3)c2s1)NO`: less than 100 nM; `O=C(CCCCCCN1CCN(Cc2cc3nc(-c4cccc5[nH]ncc45)nc(N4CCOCC4)c3s2)CC1)NO`: 100 to 1000 nM.
With `Cc1c(CN(C)c2ncc(C(=O)NO)cn2)sc2c(N3CCOCC3)nc(-c3cccc4[nH]ncc34)nc12`, the concentration for half-maximal inhibition (IC50) lay in the range of 100 to 1000 nM.
Next, `O=C(NO)c1cnc(NCc2cc3cc(-c4cccc5[nH]ncc45)nc(N4CCOCC4)c3s2)nc1`: 100 to 1000 nM; `CN(Cc1cc2nc(-c3cnc(CN)nc3)nc(N3CCOCC3)c2s1)c1ncc(C(=O)NO)cn1`: less than 100 nM.
Next, `CN(Cc1cc2nc(-c3cccc4[nH]ncc34)nc(N3CCOCC3)c2s1)CC1CCN(c2ncc(C(=O)NO)cn2)CC1`: less than 100 nM; `CN(Cc1cc2nc(-c3ccc(N)nc3)nc(N3CCOCC3)c2s1)c1ncc(C(=O)NO)cn1`: less than 100 nM.
Next, `O=C(C=Cc1cc2nc(-c3cccc4[nH]ncc34)nc(N3CCOCC3)c2s1)NO`: 100 to 1000 nM; `CN(C)c1ccc(-c2nc(N3CCOCC3)c3sc(CN(C)c4ncc(C(=O)NO)cn4)cc3n2)cn1`: 100 to 1000 nM; `O=C(CCCNCc1cc2nc(-c3cccc4[nH]ncc34)nc(N3CCOCC3)c2s1)NO`: 100 to 1000 nM.
With `CNc1ncc(-c2nc(N3CCOCC3)c3sc(CN(C)c4ncc(C(=O)NO)cn4)cc3n2)cn1`, the IC50 was less than 100 nM.
Next, `Cc1ncc(-c2nc(N3CCOCC3)c3sc(CN(C)c4ncc(C(=O)NO)cn4)cc3n2)cn1`: less than 100 nM; `C#CCCN(Cc1cc2nc(-c3cccc4[nH]ncc34)nc(N3CCOCC3)c2s1)c1ncc(C(=O)NO)cn1`: less than 100 nM.
For the compound `CN(Cc1cc2nc(-c3ccc(O)cc3)nc(N3CCOCC3)c2s1)c1ncc(C(=O)NO)cn1`, the concentration for half-maximal inhibition (IC50) lay within 100 to 1000 nM.
In turn, `CC(=O)Nc1ccc(-c2nc(N3CCOCC3)c3sc(CN(C)c4ncc(C(=O)NO)cn4)cc3n2)cc1` showed an IC50 of less than 100 nM.
Next, `COCCN(CCOC)c1nc(-c2cccc3[nH]ncc23)nc2cc(CN(C)c3ncc(C(=O)NO)cn3)sc12`: 100 to 1000 nM; `CN(Cc1cc2nc(-c3cccc4[nH]ccc34)nc(N3CCOCC3)c2s1)c1ncc(C(=O)NO)cn1`: 100 to 1000 nM; `CC1CN(c2nc(-c3cccc4[nH]ncc34)nc3cc(CN(C)c4ncc(C(=O)NO)cn4)sc23)CC(C)O1` (configuration not stated): 100 to 1000 nM.
In the case of `NC(=O)CN(Cc1cc2nc(-c3cccc4[nH]ncc34)nc(N3CCOCC3)c2s1)c1ncc(C(=O)NO)cn1` it was less than 100 nM; in that of `O=C(CCCCNc1cc2nc(-c3cccc4[nH]ncc34)nc(N3CCOCC3)c2s1)NO`, 100 to 1000 nM; in that of `O=C(NO)c1cnc(N2CCC(CNCc3cc4nc(-c5cccc6[nH]ncc56)nc(N5CCOCC5)c4s3)CC2)nc1`, 100 to 1000 nM.
Take `CN(CC1CCN(c2ncc(C(=O)NO)cn2)CC1)c1cc2nc(-c3cccc4[nH]ncc34)nc(N3CCOCC3)c2s1`: the half-inhibitory concentration (IC50) was less than 100 nM.
As for `CN(Cc1cc2cc(-c3cccc4[nH]ncc34)nc(N3CCOCC3)c2s1)c1ncc(C(=O)NO)cn1`, the IC50 lay in the range of 100 to 1000 nM.
With `CN(Cc1cc2nc(-c3cccc(C(N)=O)c3)nc(N3CCOCC3)c2s1)c1ncc(C(=O)NO)cn1`, the IC50 lay in the range of 100 to 1000 nM.
Take `Cc1nc2ccc(-c3nc(N4CCOCC4)c4sc(CN(C)c5ncc(C(=O)NO)cn5)cc4n3)cc2[nH]1`: the half-inhibitory concentration (IC50) was less than 100 nM.
In turn, `CCN(Cc1cc2nc(-c3ccc(N)cc3)nc(N3CCOCC3)c2s1)c1ncc(C(=O)NO)cn1` yielded an IC50 of 100 to 1000 nM.
Next, `CC1COCC(C)N1c1nc(-c2cccc3[nH]ncc23)nc2cc(CN(C)c3ncc(C(=O)NO)cn3)sc12` (configuration not stated): 100 to 1000 nM.
In the case of `COc1cccc(-c2nc(N3CCOCC3)c3sc(CN(C)c4ncc(C(=O)NO)cn4)cc3n2)c1` it was 100 to 1000 nM; in that of `O=C(NO)c1ccc(CNCc2cc3nc(-c4cccc5[nH]ncc45)nc(N4CCOCC4)c3s2)cc1`, 100 to 1000 nM.
